Results as given in PMC3495162 (Journal of medicinal chemistry, 2012).
Entries after “also recorded” stand apart in the source; their conditions may differ. Like-named read-outs stand apart in the source and are kept apart here. Blank lines part the entries; values can stand above or below the molecule they belong to.

Columns and labels:
[1] = tested on: H146 xenograft tumor model; settings: well-tolerated dose-schedule, mice; cited from earlier work
Bcl-2 [2] = biological target: T1, Bcl-2 (Homo sapiens, UniProt P10415); settings: read-out: Bcl-2 Ki; cited from earlier work
Bcl-xL [3] = biological target: T2, Bcl-xL (Homo sapiens, UniProt Q07817); settings: read-out: Bcl-xL Ki; cited from earlier work
Mcl-1 = Mcl-1 (Homo sapiens, UniProt Q07820); test: Fluorescence polarization competitive binding assay, Mcl-1; settings: at concentrations as high as 5 μM
Bcl-xL [4] = biological target: T2, Bcl-xL; test: Fluorescence polarization competitive binding assay, Bcl-xL; settings: for Times less potent than 5 in binding affinity to Bcl-xL: relative to compound 5
H146 cell line = test: Cell death assay; type: cell-based; settings: for Potency in induction of cell death relative to 1 and 2: H146, 24 hr; for Concentration with a similar effect (>50% of H146 cells undergoing cell death): 24 hr treatment, trypan blue
[5] = Maximum tolerated dose determination; settings: 75 mg/kg for 28, 50 mg/kg for 30, 25 mg/kg for 31
[6] = tested on: H1417 small-cell lung cancer cell line; test: Cell growth inhibition assay, H1417; type: cell-based; settings: for Times less potent than 30 and 31 in inhibition of cell growth, H1417: relative to compounds 30 and 31
[7] = tested on: H146 small-cell lung cancer cell line; test: Cell growth inhibition assay, H146; type: cell-based; settings: for Times less potent than 30 and 31 in inhibition of cell growth, H146: relative to compounds 30 and 31
H146 cancer cells = test: Western blot of PARP and caspase-3 cleavage in cells; type: cell-based; settings: 24 hr
H146 xenograft tumors = test: Pharmacodynamics: PARP and caspase-3 cleavage in xenograft tumor tissue; type: in vivo, SCID mice; settings: single i.v. dose, 28 at 50 mg/kg or 30 at 25 mg/kg; 3- and 6-h time-points
[8] = tested on: H146 xenograft tumor model; test: Antitumor efficacy in H146 xenograft tumor model; type: in vivo, SCID mice; settings: for Antitumor activity in H146 xenograft tumor model / Weight loss in tumor-bearing animals compared to the vehicle control: 28 at 50 mg/kg, 30 at 25 mg/kg, i.v., daily, 5 days a week for two weeks
Bcl-2 [9] = biological target: T1, Bcl-2; test: Fluorescence polarization competitive binding assay, Bcl-2
[10] = tested on: multiple xenograft tumor models; settings: cited from earlier work
[11] = tested on: chronic lymphocytic leukemia; settings: Phase I/II clinical trials; cited from earlier work
small cell lung cancer = settings: Phase I/II clinical trials; cited from earlier work

Sequence of Mcl-1 (Q07820 whole entry): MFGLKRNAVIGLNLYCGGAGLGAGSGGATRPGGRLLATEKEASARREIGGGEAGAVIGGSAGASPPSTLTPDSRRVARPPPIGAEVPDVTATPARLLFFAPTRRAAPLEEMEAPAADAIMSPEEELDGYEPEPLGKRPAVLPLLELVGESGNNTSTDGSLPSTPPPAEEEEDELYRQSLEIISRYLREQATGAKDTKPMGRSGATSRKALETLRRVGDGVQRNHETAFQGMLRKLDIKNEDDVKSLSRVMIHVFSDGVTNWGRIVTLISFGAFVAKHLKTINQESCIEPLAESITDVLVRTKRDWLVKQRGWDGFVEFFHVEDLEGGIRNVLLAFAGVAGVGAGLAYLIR
T2 sequence (Q07817 whole entry): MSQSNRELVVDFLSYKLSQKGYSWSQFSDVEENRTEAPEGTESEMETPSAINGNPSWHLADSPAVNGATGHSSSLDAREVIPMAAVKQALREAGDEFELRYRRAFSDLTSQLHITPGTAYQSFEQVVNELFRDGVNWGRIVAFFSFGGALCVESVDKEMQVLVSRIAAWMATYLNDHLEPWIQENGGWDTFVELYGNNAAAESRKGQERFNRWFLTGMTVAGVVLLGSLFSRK
T1 sequence (P10415 whole entry): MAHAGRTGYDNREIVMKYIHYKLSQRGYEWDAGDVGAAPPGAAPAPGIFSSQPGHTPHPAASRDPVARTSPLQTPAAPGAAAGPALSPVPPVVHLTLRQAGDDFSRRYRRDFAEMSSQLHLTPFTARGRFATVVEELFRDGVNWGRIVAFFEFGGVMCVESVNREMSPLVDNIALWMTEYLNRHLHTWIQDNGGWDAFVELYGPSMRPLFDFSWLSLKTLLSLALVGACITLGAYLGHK

Binding to Mcl-1 (Mcl-1): no appreciable binding
SMILES: CCn1c(C)c(C(=O)O)c(-c2cccc(N3CCN(c4ccc(NS(=O)(=O)c5ccc(N[C@H](CCN(C)C)CSc6ccccc6)c([N+](=O)[O-])c5)cc4)CC3)c2)c1-c1ccc(Cl)cc1 [Compound 3]
Antitumor activity in H146 xenograft model [1]: fails to achieve durable tumor regression
Ki (Bcl-2 [2]): < 1 nM
Ki (Bcl-xL [3]): < 1 nM

Times less potent than 5 in binding affinity to Bcl-xL (Bcl-xL [4]): 30 times
SMILES: Cc1c(C(=O)NCCCN2CCN(C)CC2)c(-c2cccc(N3CCN(c4ccc(NS(=O)(=O)c5ccccc5)cc4)CC3)c2)c(-c2ccc(Cl)cc2)n1C [Compound 6, 5-(4-Chlorophenyl)-1,2-dimethyl-N-(3-(4-methylpiperazin-1-yl)propyl)-4-(3-(4-(4-(phenylsulfonamido)phenyl)piperazin-1-yl)phenyl)-1H-pyrrole-3-carboxamide]

SMILES: Cc1c(C(=O)O)c(-c2cccc(N3CCN(c4ccc(NS(=O)(=O)c5ccc(N[C@H](CCN6CCC(O)CC6)CSc6ccccc6)c(S(=O)(=O)C(F)(F)F)c5)cc4)CC3)c2)c(-c2ccc(Cl)cc2)n1C(C)C [Compound 31, (R)-5-(4-Chlorophenyl)-4-(3-(4-(4-(4-(4-(4-hydroxypiperidin-1-yl)-1-(phenylthio)butan-2-ylamino)-3-(trifluoromethylsulfonyl)phenylsulfonamido)phenyl)piperazin-1-yl)phenyl)-1-isopropyl-2-methyl-1H-pyrrole-3-carboxylic Acid]
Potency in induction of cell death relative to 1 and 2 (H146 cell line): several times more potent than 1 and 2
Weight loss at higher doses [5]: more than 10%
Ki (Bcl-xL [4]): < 1 nM

Ki (Bcl-xL [4]): < 1 nM
SMILES: CCCn1c(C)c(C(=O)O)c(-c2cccc(N3CCN(c4ccc(NS(=O)(=O)c5ccc(N[C@H](CCN6CCC(O)CC6)CSc6ccccc6)c(S(=O)(=O)C(F)(F)F)c5)cc4)CC3)c2)c1-c1ccc(Cl)cc1 [Compound 32, (R)-5-(4-Chlorophenyl)-4-(3-(4-(4-(4-(4-(4-hydroxypiperidin-1-yl)-1-(phenylthio)butan-2-ylamino)-3-(trifluoromethylsulfonyl)phenylsulfonamido)phenyl)piperazin-1-yl)phenyl)-2-methyl-1-propyl-1H-pyrrole-3-carboxylic Acid]
Times less potent than 30 and 31 in inhibition of cell growth, H1417 [6]: > 10 times
Times less potent than 30 and 31 in inhibition of cell growth, H146 [7]: > 10 times

Binding to Mcl-1 (Mcl-1): no appreciable binding
Ki (Bcl-xL [4]): < 1 nM
SMILES: Cc1c(C(=O)O)c(-c2cccc(N3CCN(c4ccc(NS(=O)(=O)c5ccc(N[C@H](CCN(C)C)CSc6ccccc6)c([N+](=O)[O-])c5)cc4)CC3)c2)c(-c2ccc(Cl)cc2)n1C [Compound 4]

Times less potent than 5 in binding affinity to Bcl-xL (Bcl-xL [4]): as potent as 5
SMILES: Cc1c(C(=O)NCCCN2CCN(C)CC2)c(-c2cccc(N3CCN(c4ccc(NS(=O)(=O)c5cccc(S(=O)(=O)C(F)(F)F)c5)cc4)CC3)c2)c(-c2ccc(Cl)cc2)n1C [Compound 18, 5-(4-Chlorophenyl)-1,2-dimethyl-N-(3-(4-methylpiperazin-1-yl)propyl)-4-(3-(4-(4-(3-(trifluoromethylsulfonyl)phenylsulfonamido)phenyl)piperazin-1-yl)phenyl)-1H-pyrrole-3-carboxamide]

SMILES: Cc1c(C(=O)O)c(-c2cccc(N3CCN(c4ccc(NS(=O)(=O)c5ccc(N[C@H](CCN6CCOCC6)CSc6ccccc6)c(S(=O)(=O)C(F)(F)F)c5)cc4)CC3)c2)c(-c2ccc(Cl)cc2)n1C [Compound 23, (R)-5-(4-Chlorophenyl)-1,2-dimethyl-4-(3-(4-(4-(4-(4-morpholino-1-(phenylthio)butan-2-ylamino)-3-(trifluoromethylsulfonyl)phenylsulfonamido)phenyl)piperazin-1-yl)phenyl)-1H-pyrrole-3-carboxylic Acid]
Times less potent than 22 in inhibition of cell growth, H1417 ([6]; relative to compound 22): 3–5 times
Times less potent than 22 in inhibition of cell growth, H146 ([7]; relative to compound 22): 3–5 times

Binding to Mcl-1 (Mcl-1): no appreciable binding
Ki (Bcl-xL [4]): < 1 nM
SMILES: Cc1c(C(=O)O)c(-c2cccc(N3CCN(c4ccc(NS(=O)(=O)c5ccc(N[C@H](CCN(C)C)CSc6ccccc6)c(S(=O)(=O)C(F)(F)F)c5)cc4)CC3)c2)c(-c2ccc(Cl)cc2)n1C [Compound 22, (R)-5-(4-Chlorophenyl)-4-(3-(4-(4-(4-(4-(dimethylamino)-1-(phenylthio)butan-2-ylamino)-3-(trifluoromethylsulfonyl)phenylsulfonamido)phenyl)piperazin-1-yl)phenyl)-1,2-dimethyl-1H-pyrrole-3-carboxylic Acid]

SMILES: Cc1c(C(=O)O)c(-c2cccc(N3CCN(c4ccc(NS(=O)(=O)c5ccc(N[C@H](CCN6CCC(O)CC6)CSc6ccccc6)c(S(=O)(=O)C(F)(F)F)c5)cc4)CC3)c2)c(-c2ccc(Cl)cc2)n1C [Compound 28, (R)-5-(4-Chlorophenyl)-4-(3-(4-(4-(4-(4-(4-hydroxypiperidin-1-yl)-1-(phenylthio)butan-2-ylamino)-3-(trifluoromethylsulfonyl)phenylsulfonamido)phenyl)piperazin-1-yl)phenyl)-1,2-dimethyl-1H-pyrrole-3-carboxylic Acid]
Potency in induction of cell death relative to 1 and 2 (H146 cell line): somewhat less potent than 1 and 2
Concentration inducing clear cleavage of PARP and activation of caspase-3 (H146 cancer cells): 100 nM
Cleavage of PARP and caspase-3 in H146 tumor tissues (H146 xenograft tumors): robust cleavage of PARP and caspase-3
Antitumor activity in H146 xenograft tumor model [8]: effective in inhibition of tumor growth; also recorded: effectively inhibits tumor growth, it fails to induce tumor regression
Weight loss in tumor-bearing animals compared to the vehicle control [8]: less than 10%
Weight loss at higher doses [5]: more than 10%
Ki (Bcl-xL [4]): < 1 nM

Times less potent than 5 in binding affinity to Bcl-xL (Bcl-xL [4]): slightly less potent than 5
SMILES: Cc1c(C(=O)NCCCN2CCN(C)CC2)c(-c2cccc(N3CCN(c4ccc(NS(=O)(=O)c5cccc(Br)c5)cc4)CC3)c2)c(-c2ccc(Cl)cc2)n1C [Compound 9, 5-(4-Chlorophenyl)-4-(3-(4-(4-(3-bromophenylsulfonamido)phenyl)piperazin-1-yl)phenyl) -1,2-dimethyl-N-(3-(4-methylpiperazin-1-yl)propyl)-1H-pyrrole-3-carboxamide]

SMILES: CCn1c(C)c(C(=O)O)c(-c2cccc(N3CCN(c4ccc(NS(=O)(=O)c5ccc(N[C@H](CCN6CCC(O)CC6)CSc6ccccc6)c(S(=O)(=O)C(F)(F)F)c5)cc4)CC3)c2)c1-c1ccc(Cl)cc1 [Compound 30, (R)-5-(4-Chlorophenyl)-1-ethyl-4-(3-(4-(4-(4-(4-(4-hydroxypiperidin-1-yl)-1-(phenylthio)butan-2-ylamino)-3-(trifluoromethylsulfonyl)phenylsulfonamido)phenyl)piperazin-1-yl)phenyl)-2-methyl-1H-pyrrole-3-carboxylic Acid]
Potency in induction of cell death relative to 1 and 2 (H146 cell line): several times more potent than 1 and 2
Concentration inducing clear cleavage of PARP and activation of caspase-3 (H146 cancer cells): 10 nM
Cleavage of PARP and caspase-3 in H146 tumor tissues (H146 xenograft tumors): robust cleavage of PARP and caspase-3
Antitumor activity in H146 xenograft tumor model [8]: rapid, complete and durable tumor regression
Weight loss in tumor-bearing animals compared to the vehicle control [8]: less than 10%
Tumor-free mice at day 47 (15 days post-treatment) ([8]; 30 at 25 mg/kg i.v., 7 mice treated): all mice were tumor-free
Weight loss at higher doses [5]: more than 10%
Ki (Bcl-2 [9]): < 1 nM
Ki (Bcl-xL [4]): < 1 nM

SMILES: CN(C)CC[C@H](CSc1ccccc1)Nc1ccc(S(=O)(=O)NC(=O)c2ccc(N3CCN(Cc4ccccc4-c4ccc(Cl)cc4)CC3)cc2)cc1[N+](=O)[O-] [Compound 1, reference compound]
Concentration with a similar effect (>50% of H146 cells undergoing cell death) (H146 cell line): 30 to 100 nM
Antitumor activity in xenograft tumor models [10]: efficiently induce tumor regression

SMILES: CC1(C)CCC(c2ccc(Cl)cc2)=C(CN2CCN(c3ccc(C(=O)NS(=O)(=O)c4ccc(N[C@H](CCN5CCOCC5)CSc5ccccc5)c(S(=O)(=O)C(F)(F)F)c4)cc3)CC2)C1 [Compound 2]
Concentration with a similar effect (>50% of H146 cells undergoing cell death) (H146 cell line): 30 to 100 nM
Concentration inducing clear cleavage of PARP and activation of caspase-3 (H146 cancer cells): 30 nM
Antitumor activity in xenograft tumor models [10]: efficiently induce tumor regression
Antitumor activity in patients in chronic lymphocytic leukemia [11]: evidence of promising antitumor activity
Single-agent activity in patients with small cell lung cancer (small cell lung cancer): very limited single-agent activity

Ki (Bcl-xL [4]): < 1 nM
SMILES: CCCCn1c(C)c(C(=O)O)c(-c2cccc(N3CCN(c4ccc(NS(=O)(=O)c5ccc(N[C@H](CCN6CCC(O)CC6)CSc6ccccc6)c(S(=O)(=O)C(F)(F)F)c5)cc4)CC3)c2)c1-c1ccc(Cl)cc1 [Compound 33, (R)-1-Butyl-5-(4-chlorophenyl)-4-(3-(4-(4-(4-(4-(4-hydroxypiperidin-1-yl)-1-(phenylthio)butan-2-ylamino)-3-(trifluoromethylsulfonyl)phenylsulfonamido)phenyl)piperazin-1-yl)phenyl)-2-methyl-1H-pyrrole-3-carboxylic acid]
Times less potent than 30 and 31 in inhibition of cell growth, H1417 [6]: > 10 times
Times less potent than 30 and 31 in inhibition of cell growth, H146 [7]: > 10 times
